Data set [1] deals with T1, human NK1 receptor (Homo sapiens (Human), UniProt P25103). The experiment in a line: Inhibitory effect on human NK1 receptor (substance P-induced increase in intracellular calcium concentration). The class given is cell-based. Particulars: substance P 1 μM, compound 0.1 μM; read-out: SPRR (%), Substance P-Response Remaining (intracellular calcium concentration). On the procedure:
Inhibitory Effect on Human NK1 Receptor
(1) Preparation of Human NK1 Receptor-Expressing Cells
Human NK1 receptor-expressing cells were prepared by the same methods as those described in 2-3 of Test Example 1.
(2) Study on Inhibitory Effect on Increase in Intracellular Calcium Concentration
The human NK1 receptor-expressing cells were washed with 300 μL/well of a washing solution (20 mM HEPES/Hank's Balanced Salt Solution (HBSS) pH 7.3). A fluorescent calcium indicator (Fluo-4 Direct Calcium Assay Kit, Life Technologies, containing 0.42 mM probenecid and 0.1% bovine serum albumin, prepared according to the protocol of the product) was added to the wells at 150 μL/well, and the plate was incubated at 37° C. for 30 minutes in an incubator. Then. DMSO solutions of a test compound, which were prepared at an 80-time higher concentration using 100% dimethyl sulfoxide (DMSO), were added to the wells at 2.5 μL/well (final concentrations of 0.1, 1 and 10 μM), and the solutions were mixed. Then, the plate was further incubated at […] for 30 minutes in an incubator. After 30 minutes, the intracellular calcium concentrations were measured immediately.
The intracellular calcium concentrations were each measured as a fluorescent signal using FDSS (registered trademark) 7000 (Hamamatsu Photonics). A substance P (Peptide Institute. Inc.) solution which was prepared at 0.4 μM or 4 μM using an assay buffer (20 mM HEPES/Hank's Balanced Salt Solution (HBSS) pH 7.3, containing 0.1% bovine serum albumin) was added automatically to each well at 50 μL/well (final concentration of 0.1 or 1 μM) 10 seconds after starting reading, and the fluorescent signal was measured up to 120 seconds.
The intracellular calcium concentration (%) of the cells to which a test compound was added was calculated by the equation below, where the fluorescent signal of the group to which the vehicle (DMSO) was added was regarded as 100%, and the fluorescent signal before the addition of substance P was regarded as 0%. Intracellular calcium concentration (%)—(Fluorescent signal of test compound addition group)/(Fluorescent signal of vehicle addition group)×100
The intracellular calcium concentration (%) calculated was regarded as the remaining agonist activity of substance P (Substance P-Response Remaining: SPRR). In the table, Ex. No. means the Example number. SPRR (%) is the value obtained when the concentration of substance P was 1 μM and the concentration of the compound was 0.1 μM.
(In general: A change in cytosolic calcium serves as a functional read-out for many receptors and channels.)

The nature of data set [2]: Measurement of drug concentrations in the brain after foot-tapping. The class given is in vivo. Particulars: male gerbil, 0.1 mg/kg iv, after foot-tapping was finished. On the procedure: (§1) A male gerbil (Japan SLC) was anesthetized with isoflurane, and 0.1 mg/kg of a test compound was administered from the jugular vein. After four hours. GR73632 (5 pmol/5 μl saline), which is an NK1 receptor agonist, was administered into the cerebral ventricle at the part 1 mm lateral to and 4.5 mm below the bregma in the head, under anesthesia with isoflurane. After the administration, the gerbil was moved to an observation cage, and the foot-tapping period during 30 minutes after the recovery of the righting reflex was measured. The foot-tapping inhibition rate (%) of each test compound was calculated by the following equation. Foot-tapping inhibition rate (%)−{1−(Fool-tapping period when test compound was administered)/(Foot-tapping period when solvent was administered)}×100 (2) Measurement of Drug Concentrations
After foot-tapping was finished, laparotomy was performed immediately under anesthesia with ether, and a blood sample was taken from the abdominal vena cava. At the same lime, the brain was extracted. Through a quantitative analysis using liquid chromatography-mass spectrometry (LC/MS), the concentrations of the test compound in the plasma and the brain were measured.
(§2) In the table, Ex. No. means the Example number. Inhibition (%) is the loot-tapping inhibition rate, and Cone. (nM) is the drug concentration in the brain.

For data set [3], the target named is T1, human NK1 receptor. Put plainly: Affinity for human NK1 receptor (125I-substance P receptor binding test, membrane fraction). As to conditions: membrane fraction of human NK1 receptor-expressing 293T cells; read-out: IC50 (nM), concentration required for 50% inhibition of 125I-substance P binding. On the procedure:
Affinity for Human NK1 Receptor
(3) Measurement of Binding Affinity to Human NK1 Receptor
(3-1) Preparation of Membrane Fraction from Human NK1 Receptor-Expressing Cells
Human NK1 receptor-expressing cells were prepared in a 175 cm^2 culture flask (Nippon Becton Dickinson). The formation of a complex of the human NK1 receptor expression plasmid and Lipofectamine 2000 was performed by calculating the culture area ratio and increasing the scale of the method described in the above 2-4 by the ratio. The human NK1 receptor-expressing cells were collected in a buffer solution for the membrane fraction preparation (50 mM Tris (Wako Pure Chemical), 120 mM sodium chloride (Wako Pure Chemical Industries), 5 mM potassium chloride (Wako Pure Chemical Industries), 1 mM ethylenediaminetetraacetic acid (Sigma), 0.002 mg/mL chymostatin (Peptide Institute), 0.04 mg/bacitracin (Wako Pure Chemical Industries), 0.005 mg/mL phosphoramidon (Peptide Institute) and 0.5 mM phenylmethylsulfonyl fluoride (Wako Pure Chemical Industries), pH7.4) and centrifuged at 1,880 g for 10 minutes, and the cell sediment was suspended in the buffer solution for the membrane fraction preparation. After freezing and thawing the cells once, the cells were homogenized using a Dounce-type homogenizer (cooled on ice, 1000 rpm, 20 times) The homogenized cell suspension was centrifuged at 20,000 rpm for 10 minutes, and the supernatant was removed to obtain cell sediment. The cell sediment was suspended again in the buffer solution for the membrane fraction preparation and homogenized using a Dounce-type homogenizer (cooled on ice, 1000 rpm, 30 times). The cell suspension was centrifuged at 20,000 rpm for 10 minutes, and the supernatant was removed to obtain cell sediment. The same homogenization and centrifugation were repeated again, and final cell sediment was obtained. The final cell sediment was suspended in a buffer solution for the receptor binding test (50 mM Tris (Wako Pure Chemical Industries). 3 mM manganese chloride (Wako Pure Chemical Industries), 0.002 mg/mL chymostatin (Peptide Institute), 0.04 mg/bacitracin (Wako Pure Chemical Industries) and 0.02% bovine serum albumin (Sigma), pH 7.4), and the protein concentration was measured using BCA Protein Assay Kit (Pierce).
(3-2) Receptor Binding Test
The buffer solution for the receptor binding test was dispensed to the wells of a 96-well assay plate (Greiner) at 22.5 μL/well. DMSO solutions of a test compound, which were prepared at an 80-time higher concentration using 100% dimethyl sulfoxide (DMSO), were added to the wells at 2.5 μL/well (final concentrations of 1 nM to 100 nM), and the solutions were mixed. As a radiolabeled ligand, ^125I-substance P (Substance P, [^125I]Tyr^8-, Perkin Elmer) was used. ^125I-substance P was diluted with the buffer solution for the receptor binding test to a concentration resulting in 125 pmol/25 μL/well and added to the 96-well assay plate, and the solutions were mixed. The membrane fraction prepared from the human NK1 receptor-expressing cells was diluted with the buffer solution for the receptor binding test to a concentration resulting in 8 to 10 μg/well, suspended until the suspension became in such a homogenous state that the suspension could flow through a 27G injection needle smoothly and then added to the 96-well assay plate at 150 μL/well. Then, the plate was incubated at room temperature for 60 minutes while shaking the plate. The reaction solutions were suction-filtered through a multiscreen 96-well filter plate (Millipore) which had been pre-treated with 0.3% polyethyleneimine, and the reaction was terminated by washing with a washing solution (50 mM Tris and 0.02% bovine serum albumin, pH 7.4) four times. The bottom of the microplate was dried at 60° C., and then 100 μL/well of MicroScint 20 (PerkinElmer) was dispensed to the wells. The top of the plate was sealed with TopSeal A (PerkinElmer), and the plate was shaken for 5 to 10 minutes. […]

The target in a further data set is NK1 receptor (Meriones unguiculatus (Mongolian jird) (Gerbillus unguiculatus), UniProt Q5DUB1). The experiment in a line: Effect on foot-tapping induced by NK1 receptor agonist GR73632. The class given is in vivo. As to conditions: male gerbil, 0.1 mg/kg iv, GR73632 after four hours. On the procedure:
(1) Effect on Foot-Tapping
The test compound solution was prepared by dissolving the test compound in a vehicle (a mixture of 50% N,N-dimethylacetamide (Wako Pure Chemical Industries), 30% propylene glycol (Wako Pure Chemical Industries). 4% 2-hydroxypropyl-β-cyclodextrin (Wako Pure Chemical Industries) and 16% distilled water).
as §1, §2

Another data set has as its target human CYP3A4 (Homo sapiens (Human), UniProt P08684). The experiment in a line: Inhibitory effect on CYP3A4. It is filed as in vitro ADME. Particulars: 30-minute pre-incubation, Luciferin-IPA substrate; read-out: IC50 (μM), CYP3A4 inhibition. On the procedure:
Inhibitory Effect on CYP3A4
Enzyme reaction was performed by incubating in a potassium phosphate buffer solution (pH 7.4) containing 1 nM to 20 μM test compound, 3.2 mM magnesium chloride, 0.2 pmol human CYP3A4 (BD Biosciences), 0.5 mM reduced nicotinamide adenine dinucleotide phosphate (NADPH) and 3 μM Luciferin-IPA (Promega) at 37° C. for 10 minutes. The volume of the reaction solution was 50 μL/well. The 30-minute pre-incubation group was incubated at 37° C. for 30 minutes before adding tire substrate, the Luciferin-IPA solution (12.5 μL/well). At the end of the enzyme reaction, 50 μL/well of a Luciferin detection reagent (Promega) was added to the wells, and the plate was left at room temperature for 20 minutes. Then, the emission intensities were measured with Infinite M1000 (TECAN). The enzyme activities (%) relative to the value of the group to which the test compound was not added were calculated.

SMILES strings stand for the structures.

human CYP3A4, sequence (P08684 whole entry): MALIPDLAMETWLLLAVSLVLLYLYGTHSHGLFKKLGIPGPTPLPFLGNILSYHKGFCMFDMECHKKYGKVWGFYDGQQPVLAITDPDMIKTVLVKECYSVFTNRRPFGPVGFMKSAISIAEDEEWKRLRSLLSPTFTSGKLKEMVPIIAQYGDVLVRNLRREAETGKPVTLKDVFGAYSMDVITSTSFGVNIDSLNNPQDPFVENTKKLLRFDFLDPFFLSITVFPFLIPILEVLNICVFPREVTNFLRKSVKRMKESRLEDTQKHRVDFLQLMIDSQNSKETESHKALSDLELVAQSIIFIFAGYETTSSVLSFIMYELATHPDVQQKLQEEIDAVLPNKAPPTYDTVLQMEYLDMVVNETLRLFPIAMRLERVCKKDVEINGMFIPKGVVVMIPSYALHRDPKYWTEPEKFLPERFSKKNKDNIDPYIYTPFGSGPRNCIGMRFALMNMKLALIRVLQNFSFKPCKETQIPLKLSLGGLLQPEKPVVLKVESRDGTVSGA
T1 sequence (P25103 whole entry): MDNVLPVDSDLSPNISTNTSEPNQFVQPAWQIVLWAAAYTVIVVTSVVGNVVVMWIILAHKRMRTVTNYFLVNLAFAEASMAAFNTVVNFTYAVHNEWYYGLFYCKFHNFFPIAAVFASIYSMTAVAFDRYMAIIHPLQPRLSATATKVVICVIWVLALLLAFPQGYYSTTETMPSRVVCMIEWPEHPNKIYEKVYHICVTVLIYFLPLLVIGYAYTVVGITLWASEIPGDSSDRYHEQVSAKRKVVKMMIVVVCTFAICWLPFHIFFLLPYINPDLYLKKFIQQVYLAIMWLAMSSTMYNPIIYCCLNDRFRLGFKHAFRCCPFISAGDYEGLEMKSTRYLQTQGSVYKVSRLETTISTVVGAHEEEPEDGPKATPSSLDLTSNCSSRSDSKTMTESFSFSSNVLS
NK1 receptor, sequence (Q5DUB1 whole entry): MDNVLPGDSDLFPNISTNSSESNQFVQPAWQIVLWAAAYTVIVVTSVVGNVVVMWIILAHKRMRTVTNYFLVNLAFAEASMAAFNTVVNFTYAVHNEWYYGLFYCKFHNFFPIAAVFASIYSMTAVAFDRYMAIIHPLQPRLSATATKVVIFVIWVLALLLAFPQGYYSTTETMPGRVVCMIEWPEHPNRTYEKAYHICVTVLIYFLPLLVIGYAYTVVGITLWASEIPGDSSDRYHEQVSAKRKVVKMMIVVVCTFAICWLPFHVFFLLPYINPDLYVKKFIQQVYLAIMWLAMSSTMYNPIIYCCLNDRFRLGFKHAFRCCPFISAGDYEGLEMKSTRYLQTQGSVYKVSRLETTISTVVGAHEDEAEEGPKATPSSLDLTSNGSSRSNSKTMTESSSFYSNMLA

With `Cc1cc(F)ccc1-c1cc(C2CCC(CC(=O)O)CC2)nc(CO)c1N(C)C(=O)C(C)(C)c1cc(C(F)(F)F)cc(C(F)(F)F)c1` (stereo not drawn) [Example 19, {4-[5-{[2-(3,5-Bistrifluoromethylphenyl)-2-methylpropionyl]methylamino}-4-(4-fluoro-2-methylphenyl)-6-hydroxymethylpyridin-2-yl]cyclohexyl}acetic Acid], the remaining activity at 0.1 µM at human NK1 receptor [1] was determined as 26%. The “Conc. (nM), drug concentration in the brain” value (“Conc. (nM), drug concentration” below) in data set [2] amounted to 24 nM. Moreover, the IC50 on human NK1 receptor [3] stood at 4.96 nM. On NK1 receptor, the “Inhibition (%), foot-tapping inhibition rate” value worked out at 95%.

In the case of `Cc1cc(F)ccc1-c1cc(C2CCC(CC(=O)O)CC2)ncc1N(C)C(=O)C(C)(CO)c1cc(C(F)(F)F)cc(C(F)(F)F)c1` (stereo not drawn) [Example 5, {4-[5-{[2-(3,5-Bistrifluoromethylphenyl)-3-hydroxy-2-methylpropionyl]methylamino}-4-(4-fluoro-2-methylphenyl)pyridin-2-yl]cyclohexyl}acetic Acid], the remaining activity at 0.1 µM at human NK1 receptor [1] is 26%. Moreover, the figures for the IC50 on human NK1 receptor [3] and on human CYP3A4 were 0.98 nM and 13 µM, respectively.

Regarding `Cc1cc(F)ccc1-c1cc([C@H]2CC[C@@H](C(C)(C)C(=O)O)CC2)ncc1N(C)C(=O)C(C)(C)c1cc(C(F)(F)F)cc(C(F)(F)F)c1` [Example 12, cis-2-{4-[5-{[2-(3,5-Bistrifluoromethylphenyl)-2-methylpropionyl]methylamino}-4-(4-fluoro-2-methylphenyl)pyridin-2-yl]cyclohexyl}-2-methylpropionic Acid], on human NK1 receptor [1], the remaining activity at 0.1 µM stood at 53%. Also, the IC50 amounted to 4.46 nM at human NK1 receptor [3] and 2.2 µM on human CYP3A4.

As for `Cc1cc(F)ccc1-c1cc(C2CCC(CC(=O)O)CC2)nc(Cl)c1N(C)C(=O)C(C)(C)c1cc(C(F)(F)F)cc(C(F)(F)F)c1` (stereo not drawn) [Example 17, {4-[5-{[2-(3,5-Bistrifluoromethylphenyl)-2-methylpropionyl]methylamino}-6-chloro-4-(4-fluoro-2-methylphenyl)pyridin-2-yl]cyclohexyl}acetic Acid], in data set [2], the “Conc. (nM), drug concentration” value was determined as 57 nM. Further, the IC50 at human CYP3A4 is 3.3 µM.

`Cc1cc(F)ccc1-c1cc(C2CCC(C)(CC(=O)O)CC2)ncc1N(C)C(=O)C(C)(C)c1cc(C(F)(F)F)cc(C(F)(F)F)c1` (stereo not drawn) [Example 15, {4-[5-{[2-(3,5-Bistrifluoromethylphenyl)-2-methylpropionyl]methylamino}-4-(4-fluoro-2-methylphenyl)pyridin-2-yl]-1-methylcycloheyl}acetic Acid]: the remaining activity at 0.1 µM at human NK1 receptor [1] came to 3.7%. In addition, the “Conc. (nM), drug concentration” value in data set [2] was determined as 39 nM. Besides, the “Inhibition (%), foot-tapping inhibition rate” value at NK1 receptor came to 100%.

`Cc1cc(F)ccc1-c1cc(C2CCC(O)(CC(=O)O)CC2)ncc1N(C)C(=O)C(C)(C)c1cc(C(F)(F)F)cc(C(F)(F)F)c1` (stereo not drawn) [Example 6, {4-[5-{[2-(3,5-Bistrifluoromethylphenyl)-2-methylpropionyl]methylamino}-4-(4-fluoro-2-methylphenyl)pyridin-2-yl]-1-hydroxycyclohexyl}acetic Acid]: the remaining activity at 0.1 µM on human NK1 receptor [1] was 21%. The results for the IC50 at human NK1 receptor [3] and on human CYP3A4 were 1 nM and 6.1 µM, respectively.

With `Cc1cc(F)ccc1-c1cc(C2CCC(CCC(=O)O)CC2)ncc1N(C)C(=O)C(C)(C)c1cc(C(F)(F)F)cc(C(F)(F)F)c1` (stereo not drawn) [Example 2, 3-{4-[5-{[2-(3,5-Bistrifluoromethylphenyl)-2-methylpropionyl]methylamino}-4-(4-fluoro-2-methylphenyl)pyridin-2-yl]cyclohexyl}propionic Acid], on human NK1 receptor [1], the remaining activity at 0.1 µM was 7.5%. Also, in data set [2], the “Conc. (nM), drug concentration” value is recorded as 19 nM. In addition, the IC50 at human CYP3A4 was found to be 6.8 µM.
